PMC4654778 (Clinical cancer research : an official journal of the …, 2012)

Columns and labels:
FGFR-4 = FGFR-4 (Homo sapiens, UniProt P22455, G388R); assay type: cell-based
FGFR-1 = FGFR-1 (Homo sapiens, UniProt P11362); assay type: cell-based
Chain of FGFR-1 (P11362 22-822): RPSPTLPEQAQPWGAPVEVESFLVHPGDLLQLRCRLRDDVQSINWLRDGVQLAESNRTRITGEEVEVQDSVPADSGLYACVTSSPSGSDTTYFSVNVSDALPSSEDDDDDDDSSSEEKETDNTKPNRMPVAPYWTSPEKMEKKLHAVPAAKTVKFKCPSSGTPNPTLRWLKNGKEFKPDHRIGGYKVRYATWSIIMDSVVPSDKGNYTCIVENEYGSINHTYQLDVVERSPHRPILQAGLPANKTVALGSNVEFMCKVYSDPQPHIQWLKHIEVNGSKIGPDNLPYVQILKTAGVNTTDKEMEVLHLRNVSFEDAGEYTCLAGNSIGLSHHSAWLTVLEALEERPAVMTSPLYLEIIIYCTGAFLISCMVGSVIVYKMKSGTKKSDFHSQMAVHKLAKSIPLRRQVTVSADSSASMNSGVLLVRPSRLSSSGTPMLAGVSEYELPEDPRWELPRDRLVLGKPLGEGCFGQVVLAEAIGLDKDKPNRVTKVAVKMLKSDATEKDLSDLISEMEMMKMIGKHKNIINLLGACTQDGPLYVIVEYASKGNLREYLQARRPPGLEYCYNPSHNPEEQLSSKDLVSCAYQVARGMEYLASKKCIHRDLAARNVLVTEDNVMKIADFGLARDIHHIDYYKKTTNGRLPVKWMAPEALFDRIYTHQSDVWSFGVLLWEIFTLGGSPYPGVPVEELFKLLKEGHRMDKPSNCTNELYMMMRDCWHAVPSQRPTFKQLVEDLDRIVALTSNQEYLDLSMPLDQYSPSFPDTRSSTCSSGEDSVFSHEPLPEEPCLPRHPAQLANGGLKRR

Chain of FGFR-4 (P22455 22-802 G388R): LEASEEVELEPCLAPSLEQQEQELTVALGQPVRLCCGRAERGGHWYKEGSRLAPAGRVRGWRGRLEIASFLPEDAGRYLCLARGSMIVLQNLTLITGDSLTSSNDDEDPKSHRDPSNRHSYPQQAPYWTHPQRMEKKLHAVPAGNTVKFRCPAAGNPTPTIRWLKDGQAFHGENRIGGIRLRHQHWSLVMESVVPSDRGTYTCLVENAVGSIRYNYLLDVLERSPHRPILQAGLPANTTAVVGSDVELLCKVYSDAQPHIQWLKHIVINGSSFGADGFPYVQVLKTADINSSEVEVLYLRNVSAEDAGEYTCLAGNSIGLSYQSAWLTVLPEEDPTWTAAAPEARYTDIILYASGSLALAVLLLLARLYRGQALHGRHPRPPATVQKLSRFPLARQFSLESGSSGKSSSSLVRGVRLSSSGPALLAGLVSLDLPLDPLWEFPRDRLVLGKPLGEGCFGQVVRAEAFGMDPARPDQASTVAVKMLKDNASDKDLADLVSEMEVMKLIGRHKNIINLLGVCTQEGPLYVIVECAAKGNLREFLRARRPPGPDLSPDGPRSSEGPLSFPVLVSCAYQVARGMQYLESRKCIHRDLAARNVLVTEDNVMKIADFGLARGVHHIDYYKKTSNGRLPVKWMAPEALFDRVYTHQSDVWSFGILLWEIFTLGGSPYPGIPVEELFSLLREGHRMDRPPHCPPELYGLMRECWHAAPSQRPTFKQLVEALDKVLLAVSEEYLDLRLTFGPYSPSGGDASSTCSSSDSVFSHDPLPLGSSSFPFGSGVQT

% inhibition at 100 nM (FGFR-4): 75 | % inhibition at 100 nM (FGFR-1): 86
Substance: AZ8010
